Values joined by “and” are separate entries in the source; they are usually repeats but may differ in a detail not shown here. Equal entries are not always repeated.
Legend:
[1] = The background fluorescence was measured in TE buffer in the presence of calf thymus DNA (4 ug/mL) at a molar ratio of 1000:1 (Compound:DNA)
[2] = The background fluorescence was measured in TE buffer in the presence of calf thymus DNA (4 ug/mL) at a molar ratio of 8000:1 (Compound:DNA)
[3] = The background fluorescence was measured in TE buffer in the presence of calf thymus DNA (4 ug/mL) at a molar ratio of 4000:1 (Compound:DNA)
[4] = The background fluorescence was measured in TE buffer in the presence of calf thymus DNA (4 ug/mL) at a molar ratio of 2000:1 (Compound:DNA)
[5] = The background fluorescence was measured in TE buffer in the absence of DNA
[6] = Enhancement in fluorescence intensity was calculated as fluorescence intensity in presence of DNA/fluorescence intensity in absence of DNA

Compound | Fluorescence intensity [1] | Fluorescence intensity [2] | Fluorescence intensity [3] | Fluorescence intensity [4] | Fluorescence intensity [5] | Enhancement [6]
N=C(N)c1ccc(-c2cc3ccc(C(=N)N)cc3[nH]2)cc1 | 179 | 295 | 236 | 214 | – | –
N=C(N)c1ccc(-c2[nH]c3cc(C(=N)N)ccc3c2Cc2cc([N+](=O)[O-])ccc2O)cc1 | – | 86.7 | 94.8 | 75 | 25.3 and 15.7 and 9.8 | 3.4 and 6 and 7.7

From ChEMBL document CHEMBL1136479, “DAPI derivative: a fluorescent DNA dye that can be covalently attached to biomolecules” (Bioorg Med Chem Lett, 2003)
